# Test results published in BindingDB's records for doi:10.1016/j.bmcl.2004.01.093 (University of California Irvine, 2004).
# Target: Protein phosphatase 1 catalytic subunit (Oryctolagus cuniculus)
# Test: Inhibitory activity against protein phosphatase-1 from rabbit skeletal muscle
row,IC50,SMILES
1,60 µM,"COC(=O)c1cccc(NC(=O)C2C(C(=O)O)[C@@H]3C=C[C@H]2O3)c1 (stereo partly drawn) [(1S,4R)-3-(3-Methoxycarbonyl-phenylcarbamoyl)-7-oxa-bicyclo[2.2.1]hept-5-ene-2-carboxylic acid]"
2,> 100 µM,"CNC(=O)C1C(C(=O)O)[C@@H]2C=C[C@H]1O2 (stereo partly drawn) [(1S,4R)-3-Methylcarbamoyl-7-oxa-bicyclo[2.2.1]hept-5-ene-2-carboxylatemethyl-ammonium;]"
3,> 100 µM,"N#CC[C@]12C=C[C@H](O1)[C@@H]1C(=O)OC(=O)C12 (stereo partly drawn) [((1R,6R,7S)-3,5-Dioxo-4,10-dioxa-tricyclo[5.2.1.0*2,6*]dec-8-en-1-yl)-acetonitrile]"
4,> 100 µM,"CC(=O)NC[C@@]12CC[C@@H](O1)C1C(=O)OC(=O)[C@H]12 (stereo partly drawn) [N-((1S,2R,7R)-3,5-Dioxo-4,10-dioxa-tricyclo[5.2.1.0*2,6*]dec-1-ylmethyl)-acetamide]"
5,> 100 µM,"CC(=O)NC[C@@]12C=C[C@@H](O1)C1C(=O)OC(=O)[C@H]12 (stereo partly drawn) [N-((1S,2R,7R)-3,5-Dioxo-4,10-dioxa-tricyclo[5.2.1.0*2,6*]dec-8-en-1-ylmethyl)-acetamide]"

row,SMILES,IC50
1,CCOC(=O)c1ccc(NC(=O)C2C(C(=O)O)[C@@H]3C=C[C@H]2O3)cc1 (stereo partly specified),76 µM
